Measured values as given in patent US6114310A, “Efflux pump inhibitors” (priority 1998, dated 2000).

Test system: Pseudomonas aeruginosa PAM1001
Assay: microbe, parasite or virus in culture
Assay type: cell-based
Summary of the method: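 Checkerboard broth microdilution (NCCLS) with the efflux pump inhibitor and levofloxacin, each diluted along one axis of the plate, in Mueller Hinton Broth. Inoculum 5×10^5 CFU/ml from early-log culture; incubation 20 h at 35° C. Growth read at 650 nm and visually.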

[1] = Table 1, EPI Conc. μg/ml (number not given; column between 10 and 40 μg/ml)
[2] = Table 2, EPI Conc. μg/ml (number not given; column between 10 and 40 μg/ml)
[3] = Table 3, EPI Conc. μg/ml (number not given; column between 10 and 40 μg/ml)
[4] = Table 4, EPI Conc. μg/ml (number not given; column between 10 and 40 μg/ml)

Substance	Levofloxacin MIC Against P. aeruginosa PAM1001 in Presence of Efflux Pump Inhibitor (EPI), Minimum Inhibitory Concentration (Table 1, EPI Conc. 0 μg/ml) [µg/mL]	Levofloxacin MIC Against P. aeruginosa PAM1001 in Presence of Efflux Pump Inhibitor (EPI), Minimum Inhibitory Concentration (Table 1, EPI Conc. 0.625 μg/ml) [µg/mL]	Levofloxacin MIC Against P. aeruginosa PAM1001 in Presence of Efflux Pump Inhibitor (EPI), Minimum Inhibitory Concentration (Table 1, EPI Conc. 5 μg/ml) [µg/mL]	Levofloxacin MIC Against P. aeruginosa PAM1001 in Presence of Efflux Pump Inhibitor (EPI), Minimum Inhibitory Concentration (Table 1, EPI Conc. 10 μg/ml) [µg/mL]	Levofloxacin MIC Against P. aeruginosa PAM1001 in Presence of Efflux Pump Inhibitor (EPI), Minimum Inhibitory Concentration (Table 1, EPI Conc. 40 μg/ml) [µg/mL]	Levofloxacin MIC Against P. aeruginosa PAM1001 in Presence of Efflux Pump Inhibitor (EPI), Minimum Inhibitory Concentration (Table 1, EPI Conc. […]) [µg/mL]	Levofloxacin MIC Against P. aeruginosa PAM1001 in Presence of Efflux Pump Inhibitor (EPI), Minimum Inhibitory Concentration [1] [µg/mL]	Levofloxacin MIC Against P. aeruginosa PAM1001 in Presence of Efflux Pump Inhibitor (EPI), Minimum Inhibitory Concentration (Table 2, EPI Conc. 0 μg/ml) [µg/mL]	Levofloxacin MIC Against P. aeruginosa PAM1001 in Presence of Efflux Pump Inhibitor (EPI), Minimum Inhibitory Concentration (Table 2, EPI Conc. 0.625 μg/ml) [µg/mL]	Levofloxacin MIC Against P. aeruginosa PAM1001 in Presence of Efflux Pump Inhibitor (EPI), Minimum Inhibitory Concentration (Table 2, EPI Conc. 5 μg/ml) [µg/mL]	Levofloxacin MIC Against P. aeruginosa PAM1001 in Presence of Efflux Pump Inhibitor (EPI), Minimum Inhibitory Concentration (Table 2, EPI Conc. 10 μg/ml) [µg/mL]	Levofloxacin MIC Against P. aeruginosa PAM1001 in Presence of Efflux Pump Inhibitor (EPI), Minimum Inhibitory Concentration (Table 2, EPI Conc. 40 μg/ml) [µg/mL]	Levofloxacin MIC Against P. aeruginosa PAM1001 in Presence of Efflux Pump Inhibitor (EPI), Minimum Inhibitory Concentration [2] [µg/mL]	Levofloxacin MIC Against P. aeruginosa PAM1001 in Presence of Efflux Pump Inhibitor (EPI), Minimum Inhibitory Concentration (Table 3, EPI Conc. 0 μg/ml) [µg/mL]	Levofloxacin MIC Against P. aeruginosa PAM1001 in Presence of Efflux Pump Inhibitor (EPI), Minimum Inhibitory Concentration (Table 3, EPI Conc. 0.625 μg/ml) [µg/mL]	Levofloxacin MIC Against P. aeruginosa PAM1001 in Presence of Efflux Pump Inhibitor (EPI), Minimum Inhibitory Concentration (Table 3, EPI Conc. 5 μg/ml) [µg/mL]	Levofloxacin MIC Against P. aeruginosa PAM1001 in Presence of Efflux Pump Inhibitor (EPI), Minimum Inhibitory Concentration (Table 3, EPI Conc. 10 μg/ml) [µg/mL]	Levofloxacin MIC Against P. aeruginosa PAM1001 in Presence of Efflux Pump Inhibitor (EPI), Minimum Inhibitory Concentration (Table 3, EPI Conc. 40 μg/ml) [µg/mL]	Levofloxacin MIC Against P. aeruginosa PAM1001 in Presence of Efflux Pump Inhibitor (EPI), Minimum Inhibitory Concentration (Table 3, EPI Conc. […]) [µg/mL]	Levofloxacin MIC Against P. aeruginosa PAM1001 in Presence of Efflux Pump Inhibitor (EPI), Minimum Inhibitory Concentration [3] [µg/mL]	other results
D-Lysyl-β-N-(Ethylthioethyl)alanine 2-Naphthylamide Trifluoroacetate [Example 25]	4	4	1	0.06	0.06	4	0.06	4	4	1	0.06	0.06	0.06	4	4	2	1	0.25	4	0.50	Levofloxacin MIC Against P. aeruginosa PAM1001 in Presence of Efflux Pump Inhibitor (EPI), Minimum Inhibitory Concentration (Table 4, EPI Conc. 0 μg/ml): 4 µg/mL; Levofloxacin MIC Against P. aeruginosa PAM1001 in Presence of Efflux Pump Inhibitor (EPI), Minimum Inhibitory Concentration (Table 4, EPI Conc. 0.625 μg/ml): 4 µg/mL; Levofloxacin MIC Against P. aeruginosa PAM1001 in Presence of Efflux Pump Inhibitor (EPI), Minimum Inhibitory Concentration (Table 4, EPI Conc. 5 μg/ml): 0.125 µg/mL; Levofloxacin MIC Against P. aeruginosa PAM1001 in Presence of Efflux Pump Inhibitor (EPI), Minimum Inhibitory Concentration (Table 4, EPI Conc. 10 μg/ml): 0.06 µg/mL; Levofloxacin MIC Against P. aeruginosa PAM1001 in Presence of Efflux Pump Inhibitor (EPI), Minimum Inhibitory Concentration (Table 4, EPI Conc. 40 μg/ml): 0.125 µg/mL; Levofloxacin MIC Against P. aeruginosa PAM1001 in Presence of Efflux Pump Inhibitor (EPI), Minimum Inhibitory Concentration [4]: 0.125 µg/mL
D-Ornithyl-β-[N-(ethylthioethyl)]alanine 2-naphthylamide [Compound 42 (Table 3)]	4	4	4	1	0.008	4	0.06	4	4	0.25	0.03	0.06	0.03	4	4	2	0.25	0.125	4	0.125	Levofloxacin MIC Against P. aeruginosa PAM1001 in Presence of Efflux Pump Inhibitor (EPI), Minimum Inhibitory Concentration (Table 4, EPI Conc. 0 μg/ml): 4 µg/mL; Levofloxacin MIC Against P. aeruginosa PAM1001 in Presence of Efflux Pump Inhibitor (EPI), Minimum Inhibitory Concentration (Table 4, EPI Conc. 0.625 μg/ml): 4 µg/mL; Levofloxacin MIC Against P. aeruginosa PAM1001 in Presence of Efflux Pump Inhibitor (EPI), Minimum Inhibitory Concentration (Table 4, EPI Conc. 5 μg/ml): 2 µg/mL; Levofloxacin MIC Against P. aeruginosa PAM1001 in Presence of Efflux Pump Inhibitor (EPI), Minimum Inhibitory Concentration (Table 4, EPI Conc. 10 μg/ml): 1 µg/mL; Levofloxacin MIC Against P. aeruginosa PAM1001 in Presence of Efflux Pump Inhibitor (EPI), Minimum Inhibitory Concentration (Table 4, EPI Conc. 40 μg/ml): 0.03 µg/mL; Levofloxacin MIC Against P. aeruginosa PAM1001 in Presence of Efflux Pump Inhibitor (EPI), Minimum Inhibitory Concentration (Table 4, EPI Conc. […]): 4 µg/mL; Levofloxacin MIC Against P. aeruginosa PAM1001 in Presence of Efflux Pump Inhibitor (EPI), Minimum Inhibitory Concentration [4]: 0.125 µg/mL
